Data: article PMC4300089, “Structure-Guided Design of Selective Epac1 and Epac2 Agonists” (PLoS Biology, 2015)

Target: T1, Epac1^Q270K (Homo sapiens, UniProt O95398, Q312K)
T1 construct: made in house
T1 sequence (O95398 150-881 isoform O95398-3 Q270K): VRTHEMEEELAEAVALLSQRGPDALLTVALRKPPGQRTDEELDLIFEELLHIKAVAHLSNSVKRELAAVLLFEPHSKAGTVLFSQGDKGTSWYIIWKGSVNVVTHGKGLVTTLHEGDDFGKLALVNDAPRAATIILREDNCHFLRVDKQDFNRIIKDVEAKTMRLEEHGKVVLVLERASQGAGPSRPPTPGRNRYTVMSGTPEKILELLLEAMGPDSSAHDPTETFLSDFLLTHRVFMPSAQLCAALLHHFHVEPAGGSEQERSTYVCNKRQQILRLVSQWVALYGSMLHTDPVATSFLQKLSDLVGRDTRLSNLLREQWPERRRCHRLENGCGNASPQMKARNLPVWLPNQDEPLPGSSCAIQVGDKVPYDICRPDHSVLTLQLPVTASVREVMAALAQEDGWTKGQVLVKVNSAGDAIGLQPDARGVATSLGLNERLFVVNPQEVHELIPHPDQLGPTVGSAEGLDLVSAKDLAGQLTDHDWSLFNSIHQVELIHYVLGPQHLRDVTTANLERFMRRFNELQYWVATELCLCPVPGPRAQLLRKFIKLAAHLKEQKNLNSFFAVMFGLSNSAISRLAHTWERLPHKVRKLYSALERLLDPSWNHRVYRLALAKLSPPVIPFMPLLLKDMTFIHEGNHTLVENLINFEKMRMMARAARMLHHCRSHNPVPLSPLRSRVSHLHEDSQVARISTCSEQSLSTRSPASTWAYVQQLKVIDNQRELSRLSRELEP
Experiment: Epac activation assay, Epac1 Q270K mutant
Type: biochemical

`COC1C2OP(=O)(O)OCC2OC1n1c(Sc2ccc(Cl)cc2)nc2c(N)ncnc21` [D-007, 8-pCPT-2′-O-Me-cAMP, reference compound] was tested, and the “activation” value was “poorly activated”.
